# Experimental data from US5607850A, “Enzyme from microbial source: phthalyl amidase” (Eli Lilly and Company, priority 1995, dated 1997).
# “Also recorded” adds a separate entry of the source. Like-named read-outs stand apart in the source and are kept apart here.
# How the values were obtained:
# [1] = target: T1, phthalyl amidase (Xanthobacter agilis, UniProt P0C2Y0); test: Influence of effectors and organic solvents on phthalyl amidase activity; format: biochemical; conditions: for % of Control Activity: 1 mM agent
# Protocol: A typical reaction mixture consisted of 1 ml total volume and contained 0.1 mM III, 0.1 μM phthalyl amidase in 50 mM potassium phosphate buffer (pH 5.5-9.0) at 32° C. for 20 minutes. The reactions were stopped by the addition of 1 ml methanol. After removal of precipitate by centrifugation, an aliquot of the supernatant fraction (typically 30 μl) was monitored for the beta-lactam nucleus and phthalic acid by HPLC using a Zorbax C8 column (0.46×15 cm; MacMod Analytical Inc., Chadds Ford, Pa.). The two reaction products were eluted by a mobile phase constructed as continuous mixed gradients from (a) 1% ACN (acetonitrile)/0.2% TFA (trifluoroacetic acid) and (b) 80% ACN/0.2% TFA as follows: 1) 0% (b), 3min; 2) 0-50% (b), 0.5 min; 3) 50-100% (b), 3 min; 4) 100% (b), 2.5 min; 5) 100-1% (b), 0.1 min; and 6) 0% (b), 5 min.
# The effect of various agents on the enzymatic activity of phthalyl amidase was determined using standard conditions (see Example 5). All agents were tested at 1 mM final concentration unless otherwise indicated.
# [2] = target: T1, phthalyl amidase; test: Substrate specificity of phthalyl amidase (Tables 9-11); format: biochemical; conditions: for Relative Activity: 30° C., pH 8.0
# Protocol: the activity of phthalyl amidase against 25 compounds was determined. The compounds were divided into beta-lactams (Table 9), phthalyl amides (Table 10), and aromatic ring substituted amides (Table 11). Each reaction mixture (1 ml total volume) contained 2.5 μmol of compound and 0.3 units of enzyme (based on the chromogenic substrate) of the preparative scale purified enzyme, in 50 mM phosphate buffer, pH 8.0. The reactions were conducted at 30° C. Samples of the reaction mixture were taken at various times, and methanol (equal value) was added to stop the reaction. The samples were examined by HPLC to determine the extent of substrate hydrolysis. The amount of compound hydrolyzed was calculated from a standard curve of the test compound. All substrates were stable in buffer at 30° C. and pH 8.0 in the absence of enzyme for 24 hours.
# [3] = system: Xanthobacter agilis; test: Induction of phthalyl amidase in cultures of Xanthobacter agilis (Table 1); format: cell-based; conditions: for effect on wet weight cell mass: 48 hours growth
# Protocol: Three compounds at different concentrations were added to aerated cultures of the organism growing at 30° C. in Bac MI medium. The compounds tested were phthalate (PAA), phthalyl glycine (PAG), and PMBL. Cells of Xanthobacter agilis were grown with aeration for 24 hours. This vegetative culture was used to inoculate Bac MI medium (50 ml) containing different concentrations of the compounds to be tested. After 48 hours growth under standard conditions, cells were harvested by centrifugation and wet weight of the cells was determined. Crude cell extracts were prepared by lysozyme treatment of the cells as in Example 1. Suspensions were briefly sonicated to break up the viscous suspension. A cell-free supernatant was obtained by centrifugation of the suspension at 14,000 rpm for 15 minutes.
# Enzyme activity in cell-free lysates was determined by monitoring conversion of the chromogenic substrate 4-(2'-carboxy-N-benzoyl)amino-2-carboxy-nitrobenzene (II) to 2-nitro-5-amino benzoic acid and phthalic acid, a reaction catalyzed by phthalyl amidase as shown below: [drawing 4]
# The assay reaction mixture (1 ml) consisted of 0.3 μmol of the chromogenic substrate (II) and 0.001-0.5 μg of enzyme preparation in 50 mM potassium phosphate buffer, pH 8.0 (buffer A). The enzymatic reaction was conducted at 30° C. for 10 minutes and the appearance of product was monitored at 380 nm (or 430 nm). The amount of substrate hydrolyzed was calculated from a standard curve of the amine product.
# [4] = target: T1, phthalyl amidase; test: Kinetic parameters for phthalyl amidase; format: biochemical; conditions: Table 12; 32° C., pH 8.2
# Protocol: The kinetic parameters of the enzyme were determined for several representative substrates. Compounds II, XVII, and XVIII were tested using 0.9 μg/ml of enzyme. Compounds III and XI were tested using 5.14 μg/ml of enzyme. Substrate concentrations were between 0 and 25 mM and reaction time was between 2 and 20 minutes, depending on the substrate used. All reactions were run at 32° C. and at pH 8.2. Km is the Michaelis constant for enzyme kinetics, Vmax is the maximal rate of reaction calculated by the Michaelis-Menten equation, and Kcat is the catalytic constant for an enzyme reaction.
# [5] = Table 11, aromatic ring substituted amides
# T1 sequence (P0C2Y0 2-453): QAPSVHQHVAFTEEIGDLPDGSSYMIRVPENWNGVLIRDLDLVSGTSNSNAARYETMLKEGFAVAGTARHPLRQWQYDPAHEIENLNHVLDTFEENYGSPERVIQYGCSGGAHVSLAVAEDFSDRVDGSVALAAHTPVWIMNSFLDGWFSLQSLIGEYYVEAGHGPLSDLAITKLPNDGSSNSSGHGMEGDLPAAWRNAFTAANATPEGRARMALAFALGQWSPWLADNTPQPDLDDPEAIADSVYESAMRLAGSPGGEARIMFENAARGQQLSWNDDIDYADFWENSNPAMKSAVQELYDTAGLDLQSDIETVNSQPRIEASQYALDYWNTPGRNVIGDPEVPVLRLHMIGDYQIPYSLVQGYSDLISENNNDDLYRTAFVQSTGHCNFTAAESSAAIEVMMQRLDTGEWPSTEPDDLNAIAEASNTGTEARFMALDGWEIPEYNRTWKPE
compound,measurement,setting,value
O=C(O)CI [Iodoacetate],effect on enzyme activity,[1],exert inhibitory activity; also recorded: significantly reduced phthalyl amidase activity; also recorded: significantly inhibited the enzyme
[Cl-].[Cl-].[Mg+2] [MgCl2],% of Control Activity,[1],102%
CCCCCCC(C(=O)O)n1cnc(NC(=O)c2ccccc2O)c1 (stereo not drawn) [XXV],Relative Activity,[2]; [5],0
"O=C(O)CNC(=O)c1ccccc1C(=O)O [PAG, phthalyl glycine]",effect on wet weight cell mass,[3],increased the wet weight cell mass
same,Cell weight,[3]; addition 1 mg/ml,0.33 g/50 ml
same,Total units/mg protein,[3]; addition 1 mg/ml,0.35 µmol/min/mg
same,Units/g/cells,[3]; addition 1 mg/ml,1.04 Units/g/cells
same,Cell weight,[3]; addition 5 mg/ml,0.5 g/50 ml
same,Total units/mg protein,[3]; addition 5 mg/ml,4.4 µmol/min/mg
same,Units/g/cells,[3]; addition 5 mg/ml,9.4 Units/g/cells
O=C(O)CNC(=O)c1ccccc1C(=O)O [XI],Km,[4],140 µM
same,Vmax,[4],0.27 μmol/sec/μmol
same,Relative Activity,"[2]; Table 10, phthalyl amides",31.8
CC(C)NC(=O)c1ccccc1C(=O)O [XII],Relative Activity,"[2]; Table 10, phthalyl amides",9.7
CCCCCCC(C(=O)O)n1cnc(NC(=O)c2ncccc2C(=O)O)c1 (stereo not drawn) [Compound XX],acceptance as substrate of the enzyme,[2],acceptable
same,Relative Activity,[2]; [5],85.9
CCCCCCC(C(=O)O)n1cnc(NC(=O)c2ccc(C(=O)O)cc2)c1 (stereo not drawn) [XXIII],acceptance as substrate of the enzyme,[2],completely eliminates hydrolytic activity
same,Relative Activity,[2]; [5],0
O=C(O)CN1C(=O)C(NC(=O)c2ccccc2C(=O)O)C1CCc1ccco1 (stereo not drawn) [drawing 6],Relative Activity,"[2]; Table 9, beta-lactams",47.9
CCCCCCC(C(=O)O)n1cnc(NC(=O)c2c(F)cccc2C(=O)O)c1 (stereo not drawn) [XVIII],Km,[4],170 µM
same,Vmax,[4],1.94 μmol/sec/μmol
same,Relative Activity,[2]; [5],159.00
"O=C(O)c1cc[c]([Hg][OH])cc1 [p-HMB, parahydroxy mercuric benzoate]",% of Control Activity,[1],65%
same,effect on enzyme activity,"[1]; 1 mM, iodoacetic acid 10 mM",exert inhibitory activity; also recorded: significantly reduced phthalyl amidase activity; also recorded: significantly inhibited the enzyme
[Cl][Cu][Cl] [CuCl2],% of Control Activity,[1],36%
same,effect on enzyme activity,"[1]; 1 mM, iodoacetic acid 10 mM, listed as Cu^++",exert inhibitory activity; also recorded: significantly inhibited the enzyme
same,effect on enzyme activity,"[1]; 1 mM, iodoacetic acid 10 mM, listed as copper ions",significantly reduced phthalyl amidase activity
CCCCCCC(C(=O)O)n1cnc(NC(=O)c2cccc(O)c2C(=O)O)c1 (stereo not drawn) [XXI],acceptance as substrate of the enzyme,[2],acceptable
same,Relative Activity,[2]; [5],1.3
O=C(O)c1ccccc1C(=O)Nc1ccc([N+](=O)[O-])cc1 [VIII],Relative Activity,"[2]; Table 10, phthalyl amides",544.6
CCCCCCC(C(=O)O)n1cnc(NC(=O)c2ccccc2)c1 (stereo not drawn) [XXVIII],Relative Activity,[2]; [5],0
[Ca+2].[Cl-].[Cl-] [CaCl2],% of Control Activity,[1],89%
[Cl][Ni][Cl] [NiCl2],% of Control Activity,[1],94%
CCCCCCC(C(=O)O)n1cnc(NC(=O)c2cccc(C(=O)O)c2)c1 (stereo not drawn) [XXIV],acceptance as substrate of the enzyme,[2],completely eliminates hydrolytic activity
same,Relative Activity,[2]; [5],0
"NC(=O)C1=CN([C@@H]2O[C@H](COP(=O)(O)OP(=O)(O)OC[C@H]3O[C@@H](n4cnc5c(N)ncnc54)[C@H](OP(=O)(O)O)[C@@H]3O)[C@@H](O)[C@H]2O)C=CC1 [NADPH, reduced form of NADP]",effect on enzyme activity,"[1]; 1 mM, iodoacetic acid 10 mM","No organic co-factors, such as ATP, NADPH or others, stimulated enzyme activity"
O=C(O)CN1C(=O)C(NC(=O)c2ccccc2)C1CCc1ccco1 (stereo not drawn) [VI],Relative Activity,"[2]; Table 9, beta-lactams",0
CCCCCCC(C(=O)O)n1cnc(NC(=O)c2ccccc2C(=O)O)c1 (stereo not drawn) [XIII],acceptance as substrate of the enzyme,[2],most active compound found
same,Relative Activity,"[2]; Table 10, phthalyl amides",1027.2
[Cl][Fe]([Cl])[Cl] [FeCl3],% of Control Activity,[1],96%
CCCCCCC(C(=O)O)n1cnc(NC(=O)c2cccc(O)c2)c1 (stereo not drawn) [XXVI],Relative Activity,[2]; [5],0
COC(=O)[C@H](Cc1ccccc1)NC(=O)[C@H](CC(=O)O)NC(=O)c1ccccc1C(=O)O [XIV],Relative Activity,"[2]; Table 10, phthalyl amides",118.5
[Cl-].[Cl-].[Zn+2] [ZnCl2],% of Control Activity,[1],100%
O=C(O)C1=C(Cl)CCC2C(NC(=O)c3ccccc3C(=O)O)C(=O)N12 (stereo not drawn) [VII],Relative Activity,"[2]; Table 10, phthalyl amides",100.0
OCC(O)CO [Glycerol],effect of solvent on enzyme activity,[1]; 10% solvent,least amount of inhibition of the enzyme
CC(C)CC(NC(=O)c1ccccc1C(=O)O)C(=O)O (racemic) [XVI],Relative Activity,"[2]; Table 10, phthalyl amides",90.2
CCCCCCC(C(=O)O)n1cnc(NC(=O)c2cc(O)cc(O)c2)c1 (stereo not drawn) [XXVII],Relative Activity,[2]; [5],0
"O=C(O)c1ccccc1C(=O)O [PAA, phthalate]",Cell weight,[3]; addition 1 mg/ml,0.35 g/50 ml
same,Total units/mg protein,[3]; addition 1 mg/ml,1.4 µmol/min/mg
same,Units/g/cells,[3]; addition 1 mg/ml,3.9 Units/g/cells
same,Cell weight,[3]; addition 2 mg/ml,0.47 g/50 ml
same,Total units/mg protein,[3]; addition 2 mg/ml,4.3 µmol/min/mg
same,Units/g/cells,[3]; addition 2 mg/ml,9.3 Units/g/cells
same,Cell weight,[3]; addition 5 mg/ml,0.7 g/50 ml
same,Total units/mg protein,[3]; addition 5 mg/ml,3.7 µmol/min/mg
same,Units/g/cells,[3]; addition 5 mg/ml,5.5 Units/g/cells
same,Cell weight,[3]; addition 10 mg/ml,0.6 g/50 ml
same,Total units/mg protein,[3]; addition 10 mg/ml,12.0 µmol/min/mg
same,Units/g/cells,[3]; addition 10 mg/ml,19.8 Units/g/cells
[Cl][Mn][Cl] [MnCl2],% of Control Activity,[1],84%
O=C(O)CN1C(=O)C(NC(=O)Cc2ccccc2)C1CCc1ccco1 (stereo not drawn) [V],Relative Activity,"[2]; Table 9, beta-lactams",0
CSCCC(NC(=O)c1ccccc1C(=O)O)C(=O)O (racemic) [XV],Relative Activity,"[2]; Table 10, phthalyl amides",220.1
[Cl][Fe][Cl] [FeCl2],% of Control Activity,[1],102%
O=C(O)CN(CCN(CC(=O)O)CC(=O)O)CC(=O)O [EDTA],effect on enzyme activity,[1],little or no effect on enzyme activity
"Nc1ncnc2c1ncn2[C@@H]1O[C@H](COP(=O)(O)OP(=O)(O)OP(=O)(O)O)[C@@H](O)[C@H]1O [ATP, adenosine 5triphosphate]",effect on enzyme activity,"[1]; 1 mM, iodoacetic acid 10 mM","No organic co-factors, such as ATP, NADPH or others, stimulated enzyme activity"
CCCCCCC(C(=O)O)n1cnc(NC(=O)c2ccccc2-c2nn[nH]n2)c1 (stereo not drawn) [XXII],acceptance as substrate of the enzyme,[2],Low levels of hydrolysis
same,Relative Activity,[2]; [5],0.2
[Cl-].[Cl-].[Co+2] [CoCl2],% of Control Activity,[1],101%
"O=C(O)c1ccccc1C(=O)Nc1ccc([N+](=O)[O-])c(C(=O)O)c1 [II, 4-(2'-carboxy-N-benzoyl)amino-2-carboxy-nitrobenzene]",Km,[4],50 µM
same,Vmax,[4],5.95 μmol/sec/μmol
same,Relative Activity,"[2]; Table 10, phthalyl amides",295.7
CCCCCCC(C(=O)O)n1cnc(NC(=O)c2ccccc2C(=O)O)c1 (stereo not drawn) [XVII],Km,[4],90 µM
same,Vmax,[4],1.41 μmol/sec/μmol
same,Relative Activity,[2]; [5],100.0
O=C(O)c1ccccc1C(=O)NCc1ccccc1,Relative Activity,"[2]; Table 10, phthalyl amides",40.2
"c1cnc2c(c1)ccc1cccnc12 [Phenanthroiine, phenanthroline]",effect on enzyme activity,"[1]; 1 mM, iodoacetic acid 10 mM",little or no effect on enzyme activity
"O=C(O)CN1C(=O)C(NC(=O)c2ccccc2C(=O)O)C1CCc1ccco1 (stereo not drawn) [PMBL, phthalyl monocyclic beta-lactam]",effect on wet weight cell mass,[3],had no effect
same,Cell weight,[3]; addition 1 mg/ml,0.35 g/50 ml
same,Total units/mg protein,[3]; addition 1 mg/ml,0.28 µmol/min/mg
same,Units/g/cells,[3]; addition 1 mg/ml,0.79 Units/g/cells
same,Cell weight,[3]; addition 5 mg/ml,0.24 g/50 ml
same,Total units/mg protein,[3]; addition 5 mg/ml,2.0 µmol/min/mg
same,Units/g/cells,[3]; addition 5 mg/ml,8.1 Units/g/cells
O=C(O)CN1C(=O)C(NC(=O)COc2ccccc2)C1CCc1ccco1 (stereo not drawn) [IV],Relative Activity,"[2]; Table 9, beta-lactams",0
